Assay results from the NIST ThermoML archive (doi:10.1016/j.tca.2009.08.017).
± gives the expanded uncertainty stated by the source.

Tests used:
[1] = Molar enthalpy of transition or fusion; conditions: Crystal; DSC
[2] = Crystal; DTA

Row | Structure (SMILES) | Molar enthalpy of transition or fusion [1] [kJ/mol] | Normal melting temperature [2] [°C]
1 | NC(=O)CC[C@H](N)C(=O)O [L-glutamine] | 29 ± 3.7 | 182.20 ± 3.4
2 | NC(=O)C[C@H](N)C(=O)O [L-asparagine] | 112 ± 6.4 | 210.20 ± 3.2
